Assay results reported in patent US20140336248A1, “THERAPEUTIC COMPOSITIONS AND RELATED METHODS OF USE” (priority 2011, published 2014).

What was measured:
[1] = format: physicochemical
Excerpt: The precipitate observed in Batch A in Example S was isolated and subjected to XRPD analysis. Comparative evaluation was done as shown in FIG. 11 using (1) API used in the formulation (Batch C, manufactured by Neuland Laboratories Ltd., India) and (2) API from a different lot (Batch D).

ICR mice [2] = assay: Tolerability 1.5, 2.0, 3.0 mg/kg IV in 1% ethanol/4% propylene glycol/5% Solutol HS 15 (Example I); format: in vivo, mouse; conditions: for Body weight: FIG. 2
Description: (§1) Injectable salinomycin compositions were prepared as follows: A) 0.6 mg/mL composition: 3.03 mg of salinomycin sodium was added to 50 μL ethanol and vortexed for 1 minute to yield a clear solution. 200 μL of propylene glycol was then added and vortexed for 1 minute, yielding a clear solution. To this solution was next added 250 μL Solutol® HS 15, with vortexing for 1 minute and sonicating for 1 minute, to yield a clear solution.
(§2) Eight male ICR mice (Sino-British SIPPR/BK Lab Animal Ltd, Shanghai, China) were assigned to control and treatment groups. […] The individual animal number marked on the tail, and study number comprised a unique identification for each animal. Animal identification was verified during the course of the study. The animals were housed two per cage in stainless steel suspended cage in an environmentally controlled room. SLACOM (Rodent Diet #20110615029, Shanghai SLAC Laboratory Animal Co. Ltd.) was available ad libitum. Temperature and humidity were monitored and recorded twice daily.
(§3) Each composition and the vehicle (control) were administered once daily to each of two mice via intravenous bolus injection for 5 consecutive days. The dose levels for the treated groups and the control group are in the below table. Individual doses were based on the most recent body weight.
(§4) Body weights for all animals were measured and recorded at receipt, prior to randomization, and once daily during the study. Body weight change was calculated for mean value of animals relative to Day 1 mean body weight value.

ICR mice [3] = assay: Tolerability IV in 5% ethanol/15% Solutol HS 15, 5 days (Example L); format: in vivo, mouse; conditions: for Clinical observations: one animal
Description: Injectable salinomycin compositions were prepared as follows: 0.6 mg/mL stock solution: 1.2 mg of salinomycin sodium was added to 100 μL ethanol and vortexed for 2 minutes and sonicated for 2 minutes to yield a clear solution. To this solution was next added 300 μL Solutol® HS 15, with vortexing for 1 minute. Finally, 1.6 mL water was added to produce a clear stock solution of 0.6 mg/mL salinomycin sodium.
as §2, with “Six” for “Eight”
as §3, §4

ICR mice [4] = assay: Tolerability 0.1, 0.3, 1.0 mg/kg IV in 3% propylene glycol/10% Solutol HS 15, 4 days (Example O); format: in vivo, mouse; conditions: for Body weight: FIG. 8
Description: as §2, with “Using the techniques described above in Example A, an aqueous vehicle comprising 3% propylene glycol (v/v) and 10% Solutol® HS 15 (v/v) was prepared. An appropriate amount of salinomycin sodium was dissolved into the vehicle to make solutions having concentrations of 0.02, 0.06, and 0.2 mg/mL. Eight male” for “Eight male”, “animal number was marked on” for “animal number marked on”
Each composition and the vehicle (control) were administered once daily to each of two mice via intravenous bolus injection for 4 consecutive days. The dose levels for the treated groups and the control group are in the below table. Individual doses were based on the most recent body weight.
as §4

ICR mice [5] = assay: Tolerability 0.3, 0.6, 1.0 mg/kg IV in 1% ethanol/4% propylene glycol/5% Solutol HS 15 (Example H); format: in vivo, mouse; conditions: male ICR mice
Description: as §1, with “0.2” for “0.6”, “1.01” for “3.03”
as §2, §3, §4

SMILES: CC[C@@H](C(=O)[C@@H](C)[C@@H](O)[C@H](C)[C@@H]1O[C@@H]([C@@H](CC)C(=O)O)CC[C@@H]1C)[C@H]1O[C@]2(C=C[C@@H](O)[C@]3(CC[C@@](C)([C@H]4CC[C@](O)(CC)[C@H](C)O4)O3)O2)[C@H](C)C[C@@H]1C [salinomycin sodium]
- Solubility (conclusion) [1]: inadequate solubility
- Solid form by XRPD ([1]; API used in the formulation along with API of a different lot): amorphous nature
- Clinical observations (ICR mice [2]; 1.5 mg/kg IV once daily 5 days): decreased activity levels
- Recovery (ICR mice [2]; 1.5 mg/kg IV once daily 5 days): returned to normal function at the conclusion of the study
- Body weight (ICR mice [2]; 2 mg/kg IV once daily 5 days): lost weight
- Clinical observations (ICR mice [2]; 2.0 mg/kg IV once daily 5 days, post dosage): decreased activity and rapid breathing
- Mortality (ICR mice [2]; 2.0 mg/kg IV once daily 5 days, two mice): One of the animals dosed at 2.0 mg/kg was found dead on day 4
- Clinical observations (ICR mice [2]; 3.0 mg/kg IV once daily 5 days, after dosing): decreased activity, rapid breathing and loss of reflex activity
- Body weight (ICR mice [2]; 1.5 and 3.0 mg/kg IV once daily 5 days): stable
- Clinical observations (ICR mice [3]; 0.1 mg/kg IV once daily 5 days): decreased activity immediately after dosing on day 1
- Clinical observations (ICR mice [3]; 0.3 mg/kg IV once daily 5 days): hypersensitivity to touch after dosing on day 1
- Body weight change relative to Day 1 (ICR mice [3]; 0.1, 0.3 mg/kg IV once daily 5 days, FIG. 5): all groups added weight
- Clinical observations (ICR mice [4]; 0.1 mg/kg IV once daily 4 days): no abnormalities
- Clinical observations (ICR mice [4]; 0.3 mg/kg IV once daily 4 days, after initial administration, no abnormalities on days 2, 3, 4): slight decrease in activity
- Body weight (ICR mice [4]; 1 mg/kg IV once daily 4 days): decreased steadily
- Clinical observations (ICR mice [4]; 1.0 mg/kg IV once daily 4 days, no abnormalities on days 2, 3, 4): decreased activity and leaning
- Body weight (ICR mice [4]; 0.1 and 0.3 mg/kg IV once daily 4 days): remained relatively stable
- Abnormalities detected (ICR mice [5]; 0.3, 0.6, 1.0 mg/kg IV bolus once daily 5 days): no abnormalities
- Body weight change relative to Day 1 (ICR mice [5]; 0.3, 0.6, 1.0 mg/kg IV bolus once daily 5 days, FIG. 1): all groups added weight
- Dose that can be safely dosed (ICR mice [5]; IV once daily 5 days): 1 mg/kg
